Test results taken from patent publication US10881099B2, “Process to improve crop yield” (priority 2016, dated 2021).

Assays:
[1] = test system: anthracnose (Colletotrichum acutatum), naturally infected plants; experiment: Example 2: pre-plant dip of naturally infected strawberry plants (Nursery 2), field trial; format: in vivo; details: cv. Portola (Nursery 2); for DI: Disease incidence (average) / DS: Disease severity, by ranking (average) 0-4 / LSI: Leaf spot incidence (average): after four weeks; for W: Weight (average) / Y: Yield (average): after six weeks
[2] = test system: azoxystrobin (QoI)-resistant (R) strains of Colletotrichum acutatum; experiment: Example 2: pre-plant dip of strawberry plants inoculated with azoxystrobin-resistant isolate, field trial; format: in vivo; details: for DI: Disease incidence (average) / DS: Disease severity, by ranking (average) 0-4: after four weeks; for W: Weight (average) / Y: Yield (average): after six weeks
[3] = test system: azoxystrobin (QoI)-sensitive (S) strains of Colletotrichum acutatum; experiment: Example 2: pre-plant dip of strawberry plants inoculated with azoxystrobin-sensitive isolate, field trial; format: in vivo; details: for DI: Disease incidence (average) / DS: Disease severity, by ranking (average) 0-4: after four weeks; for W: Weight (average) / Y: Yield (average): after six weeks
[4] = test system: Colletotrichum acutatum; experiment: Example 1: pre-plant dip of cv. Portola baby strawberry plants with natamycin, fruit yield after 6 weeks; format: in vivo
Experimental: Baby strawberry plants of cv. Portola were either inoculated or non-inoculated (naturally infected). Inoculation was done by dipping plants for 4 minutes in conidial suspensions of Colletotrichum acutatum, and then drip-dried. Plants were then stored for 8 h at 20° C., or 3 days at 5° C. […] The plants were then planted in different rows for each treatment, one feet apart and the yield was evaluated for fruit yield after 6 weeks. See below Table 1 for results.

[5] = test system: fungi within the Ascomycota (e.g. Botrytis and Colletotrichum spp.) and Zygomycota (e.g. Rhizopus stolonifer); details: for most of these organisms; cited from earlier work
[6] = test system: mixture of four Colletotrichum acutatum isolates, two sensitive and two resistant to QoI fungicides; experiment: Example 3: dip treatments on Florida Radiance transplants for control of Colletotrichum acutatum; format: in vivo; details: cv. Florida Radiance; for Plant diameter / Plant diameter compared to the non-treated control (in words): 35 DAP; for Yield (marketable fruit): seven harvests
[7] = test system: strawberry plants (two plant cultivars); details: in vivo
Experimental: Plants were evaluated periodically for disease and phytotoxicity over the course of the trial. As plants develop disease symptoms, fungal isolations were done from diseased tissue to validate the symptoms as anthracnose. For this, pieces of crown and leaf tissues from the margins between diseased and healthy tissue were surface-sterilized with sodium hypochlorite and rinsed with sterile, distilled water. A small sample of this plant tissue was removed, cut into pieces, and plated onto 10-cm potato dextrose agar media plates amended with ampicillin and rifampicin to inhibit bacterial growth. Plates were incubated for 5-6 days at 25° C., and fungal colonies were identified using morphological characteristics. A subset of fungal colonies was confirmed by PCR using species-specific primers for Colletotrichum acutatum (Förster and Adaskaveg, Phytopathology (1999) 89 1056-1065).

[8] = 4 min dip, rates/150 gal: Actinovate 24 oz., azoxystrobin 8 fl. oz., Bravo 24 fl. oz., Switch 8 oz.
[9] = rates/150 gal: Actinovate 24 oz., azoxystrobin 8 fl. oz., Bravo 24 fl. oz., Switch 8 oz.
[10] = cv. Fronteras (Nursery 1), 4 min dip, rates/150 gal: Actinovate 24 oz., azoxystrobin 8 fl. oz., Bravo 24 fl. oz., Switch 8 oz.
[11] = cv. Fronteras (Nursery 1), rates/150 gal: Actinovate 24 oz., azoxystrobin 8 fl. oz., Bravo 24 fl. oz., Switch 8 oz.
[12] = cv. Portola (Nursery 1), 4 min dip, rates/150 gal: Actinovate 24 oz., azoxystrobin 8 fl. oz., Bravo 24 fl. oz., Switch 8 oz.
[13] = cv. Portola (Nursery 1), rates/150 gal: Actinovate 24 oz., azoxystrobin 8 fl. oz., Bravo 24 fl. oz., Switch 8 oz.
[14] = natamycin 13.3 oz. per 150 gal.
[15] = natamycin 26.6 oz. per 150 gal.
[16] = natamycin 26.6 fl. oz./100 gal. (dipped in the field)
[17] = natamycin 26.6 fl. oz./100 gal. (dipped indoors to avoid sunlight)
[18] = cv. Fronteras (Nursery 1), natamycin 13.3 oz. per 150 gal.
[19] = cv. Fronteras (Nursery 1), natamycin 26.6 oz. per 150 gal.
[20] = cv. Portola (Nursery 1), natamycin 13.3 oz. per 150 gal.
[21] = cv. Portola (Nursery 1), natamycin 26.6 oz. per 150 gal.

Question: What does the source list for CO/C=C(/C(=O)OC)c1ccccc1Oc1cc(Oc2ccccc2C#N)ncn1 [Azoxystrobin]?
Answer: DI: Disease incidence (average) [1, 8]: 41.7%; DS: Disease severity, by ranking (average) 0-4 [1, 8]: 0.5; LSI: Leaf spot incidence (average) [1, 8]: 0.5 number of spots; W: Weight (average) [1, 9]: 9.8 g per fruit; Y: Yield (average) [1, 9]: 1114.8 g per treated plot; DI: Disease incidence (average) [2, 10]: 100.0%; DS: Disease severity, by ranking (average) 0-4 [2, 10]: 2.9; W: Weight (average) [2, 11]: 7.9 g per fruit; Y: Yield (average) [2, 11]: 16.4 g per treated plot; DI: Disease incidence (average) [2, 12]: 100.0%; DS: Disease severity, by ranking (average) 0-4 [2, 12]: 4.0; W: Weight (average) [2, 13]: 0.0 g per fruit; Y: Yield (average) [2, 13]: 0.0 g per treated plot; DI: Disease incidence (average) [3, 10]: 7.5%; DS: Disease severity, by ranking (average) 0-4 [3, 10]: 0.2; W: Weight (average) [3, 11]: 10.68 g per fruit; Y: Yield (average) [3, 11]: 378.1 g per treated plot; DI: Disease incidence (average) [3, 12]: 33.1%; DS: Disease severity, by ranking (average) 0-4 [3, 12]: 0.8; W: Weight (average) [3, 13]: 6.4 g per fruit; Y: Yield (average) [3, 13]: 157.7 g per treated plot

Question: With C[C@@H]1C/C=C/C=C/C=C/C=C/[C@H](O[C@@H]2O[C@H](C)[C@@H](O)[C@H](N)[C@@H]2O)C[C@@H]2O[C@](O)(C[C@@H](O)C[C@H]3O[C@@H]3/C=C/C(=O)O1)C[C@H](O)[C@H]2C(=O)O [Natamycin, natamycin] as the compound, how does the “Average weight per individual strawberry” value ([4]; natamycin 13.3 oz./150 gallon) read?
Answer: 8.7 g

Question: And the “Average weight per individual strawberry” value ([4]; natamycin 26.6 oz./150 gallon)?
Answer: 8.7 g

Question: And the “DI: Disease incidence (average)” value [1, 14]?
Answer: 57.5%

Question: And the “DS: Disease severity, by ranking (average) 0-4” value (from here on “DS: Disease severity, by ranking”) [1, 14]?
Answer: 0.9

Question: What about the “LSI: Leaf spot incidence (average)” value [1, 14] of the same compound?
Answer: 0.6 number of spots

Question: And the “DI: Disease incidence (average)” value [1, 15]?
Answer: 53.7%

Question: What about the “DS: Disease severity, by ranking” value [1, 15] of the same compound?
Answer: 0.7

Question: What about the “LSI: Leaf spot incidence (average)” value [1, 15] of the same compound?
Answer: 0.4 number of spots

Question: What about the “W: Weight (average)” value [1, 14] of the same compound?
Answer: 8.7 g per fruit

Question: What about the “Y: Yield (average)” value [1, 14] of the same compound?
Answer: 714.4 g per treated plot

Question: And the “W: Weight (average)” value [1, 15]?
Answer: 8.7 g per fruit

Question: What about the “Y: Yield (average)” value [1, 15] of the same compound?
Answer: 742.5 g per treated plot

Question: What about the minimum inhibitory concentration [5] of the same compound?
Answer: < 10 ppm

Question: And the Plant diameter [6, 16]?
Answer: 5.7 bcd in

Question: And the Plant diameter [6, 17]?
Answer: 5.9 abc in

Question: What about the “Plant diameter compared to the non-treated control (in words)” value ([6]; natamycin dipped in the field: excepted from the treatments that significantly increased plant diameter) of the same compound?
Answer: With the exception of natamycin (dipped in the field)

Question: What about the “Plant diameter compared to the non-treated control (in words)” value ([6]; natamycin: treatment dipped indoors) of the same compound?
Answer: significantly increased plant diameter

Question: And the “Disease incidence (diseased plants, dead+wilted)” value ([6]; 42 DAP, natamycin 26.6 fl. oz./100 gal. (dipped in the field))?
Answer: 2.5 de %

Question: What about the “Disease incidence (diseased plants, dead+wilted)” value ([6]; 42 DAP, natamycin 26.6 fl. oz./100 gal. (dipped indoors to avoid sunlight)) of the same compound?
Answer: 0.0 e %

Question: And the “Disease incidence (diseased plants, dead+wilted)” value ([6]; 42 DAP, natamycin 26.6 fl. oz./100 gal. (dipped indoors to avoid sunlight), listed as natamycin)?
Answer: 0.0%

Question: What about the “Disease incidence compared to the non-treated control (in words)” value ([6]; 42 DAP, natamycin: both treatments (field and indoors)) of the same compound?
Answer: reduced disease incidence compared to the non-treated control

Question: What about the “Yield compared to the non-treated control (in words)” value ([6]; natamycin: dipped in the field) of the same compound?
Answer: higher yields than the non-treated control

Question: What about the “Yield (marketable fruit)” value [6, 16] of the same compound?
Answer: 2924 abc lb./A

Question: What about the “Yield (marketable fruit)” value [6, 17] of the same compound?
Answer: 2547 bcde lb./A

Question: What about the phytotoxicity [7] of the same compound?
Answer: no phytotoxicity is observed

Question: And the “DI: Disease incidence (average)” value [2, 18]?
Answer: 37.5%

Question: And the “DS: Disease severity, by ranking” value [2, 18]?
Answer: 0.8

Question: And the “DI: Disease incidence (average)” value [2, 19]?
Answer: 54.2%

Question: And the “DS: Disease severity, by ranking” value [2, 19]?
Answer: 1.3

Question: And the “W: Weight (average)” value [2, 18]?
Answer: 8.9 g per fruit

Question: What about the “Y: Yield (average)” value [2, 18] of the same compound?
Answer: 261.7 g per treated plot

Question: And the “W: Weight (average)” value [2, 19]?
Answer: 9.3 g per fruit

Question: And the “Y: Yield (average)” value [2, 19]?
Answer: 145.2 g per treated plot

Question: And the “DI: Disease incidence (average)” value [2, 20]?
Answer: 82.5%

Question: What about the “DS: Disease severity, by ranking” value [2, 20] of the same compound?
Answer: 2.2

Question: And the “DI: Disease incidence (average)” value [2, 21]?
Answer: 29.4%

Question: What about the “DS: Disease severity, by ranking” value [2, 21] of the same compound?
Answer: 0.4

Question: What about the “W: Weight (average)” value [2, 20] of the same compound?
Answer: 7.9 g per fruit

Question: What about the “Y: Yield (average)” value [2, 20] of the same compound?
Answer: 112.4 g per treated plot

Question: And the “W: Weight (average)” value [2, 21]?
Answer: 8.6 g per fruit

Question: And the “Y: Yield (average)” value [2, 21]?
Answer: 235.0 g per treated plot

Question: And the “efficacy when plants are inoculated with azoxystrobin-resistant isolates (in words)” value ([2]; pre-plant dip)?
Answer: very effective

Question: And the “DI: Disease incidence (average)” value [3, 18]?
Answer: 37.5%

Question: What about the “DS: Disease severity, by ranking” value [3, 18] of the same compound?
Answer: 0.8

Question: And the “DI: Disease incidence (average)” value [3, 19]?
Answer: 32.5%

Question: And the “DS: Disease severity, by ranking” value [3, 19]?
Answer: 0.6

Question: What about the “W: Weight (average)” value [3, 18] of the same compound?
Answer: 8.14 g per fruit

Question: What about the “Y: Yield (average)” value [3, 18] of the same compound?
Answer: 161.8 g per treated plot

Question: And the “W: Weight (average)” value [3, 19]?
Answer: 8.31 g per fruit

Question: And the “Y: Yield (average)” value [3, 19]?
Answer: 161.1 g per treated plot

Question: And the “DI: Disease incidence (average)” value [3, 20]?
Answer: 32.5%

Question: And the “DS: Disease severity, by ranking” value [3, 20]?
Answer: 0.8

Question: And the “DI: Disease incidence (average)” value [3, 21]?
Answer: 27.5%

Question: What about the “DS: Disease severity, by ranking” value [3, 21] of the same compound?
Answer: 0.4

Question: And the “W: Weight (average)” value [3, 20]?
Answer: 7.9 g per fruit

Question: And the “Y: Yield (average)” value [3, 20]?
Answer: 224.1 g per treated plot

Question: What about the “W: Weight (average)” value [3, 21] of the same compound?
Answer: 7.0 g per fruit

Question: What about the “Y: Yield (average)” value [3, 21] of the same compound?
Answer: 188.4 g per treated plot
